Experimental data from PubChem BioAssay AID1259407 (Chemical Carcinogenesis Research Information System (CCRIS), 2018).
The source made the active and inactive calls. No rule for the calls is given here.

System: CCRIS mutagenicity, Ames/micronucleus/aberration tests
Test: CCRIS mutagenicity studies
[1] = Test System: AMES SALMONELLA TYPHIMURIUM, Strain/Indicator: TA100, Metabolic Activation: NONE, Method: STANDARD PLATE

**Q.** Which results are given for `CCCCC(CC)CN` (stereo not given)?
**A.** mutagenic call (Test System: AMES SALMONELLA TYPHIMURIUM, Strain/Indicator: TA97, Metabolic Activation: HAMSTER, LIVER, S-9, AROCLOR 1254 (10%), Method: PREINCUBATION): inactive; negative; mutagenic call (Test System: AMES SALMONELLA TYPHIMURIUM, Strain/Indicator: TA97, Metabolic Activation: HAMSTER, LIVER, S-9, AROCLOR 1254 (30%), Method: PREINCUBATION): inactive; negative; mutagenic call (Test System: AMES SALMONELLA TYPHIMURIUM, Strain/Indicator: TA97, Metabolic Activation: NONE, Method: PREINCUBATION): inactive; negative; mutagenic call (Test System: AMES SALMONELLA TYPHIMURIUM, Strain/Indicator: TA97, Metabolic Activation: RAT, LIVER, S-9, AROCLOR 1254 (10%), Method: PREINCUBATION): inactive; negative; mutagenic call (Test System: AMES SALMONELLA TYPHIMURIUM, Strain/Indicator: TA97, Metabolic Activation: RAT, LIVER, S-9, AROCLOR 1254 (30%), Method: PREINCUBATION): inactive; negative; mutagenic call (Test System: AMES SALMONELLA TYPHIMURIUM, Strain/Indicator: TA98, Metabolic Activation: HAMSTER, LIVER, S-9, AROCLOR 1254 (10%), Method: PREINCUBATION): inactive; negative; mutagenic call (Test System: AMES SALMONELLA TYPHIMURIUM, Strain/Indicator: TA98, Metabolic Activation: HAMSTER, LIVER, S-9, AROCLOR 1254 (30%), Method: PREINCUBATION): inactive; negative; mutagenic call (Test System: AMES SALMONELLA TYPHIMURIUM, Strain/Indicator: TA98, Metabolic Activation: NONE, Method: PREINCUBATION): inactive; negative; mutagenic call (Test System: AMES SALMONELLA TYPHIMURIUM, Strain/Indicator: TA98, Metabolic Activation: RAT, LIVER, S-9, AROCLOR 1254 (10%), Method: PREINCUBATION): inactive; negative; mutagenic call (Test System: AMES SALMONELLA TYPHIMURIUM, Strain/Indicator: TA98, Metabolic Activation: RAT, LIVER, S-9, AROCLOR 1254 (30%), Method: PREINCUBATION): inactive; negative; mutagenic call (Test System: AMES SALMONELLA TYPHIMURIUM, Strain/Indicator: TA100, Metabolic Activation: HAMSTER, LIVER, S-9, AROCLOR 1254 (10%), Method: PREINCUBATION): inactive; negative; mutagenic call (Test System: AMES SALMONELLA TYPHIMURIUM, Strain/Indicator: TA100, Metabolic Activation: HAMSTER, LIVER, S-9, AROCLOR 1254 (30%), Method: PREINCUBATION): inactive; negative; mutagenic call (Test System: AMES SALMONELLA TYPHIMURIUM, Strain/Indicator: TA100, Metabolic Activation: NONE, Method: PREINCUBATION): inactive; negative; mutagenic call (Test System: AMES SALMONELLA TYPHIMURIUM, Strain/Indicator: TA100, Metabolic Activation: RAT, LIVER, S-9, AROCLOR 1254 (10%), Method: PREINCUBATION): inactive; negative; mutagenic call (Test System: AMES SALMONELLA TYPHIMURIUM, Strain/Indicator: TA100, Metabolic Activation: RAT, LIVER, S-9, AROCLOR 1254 (30%), Method: PREINCUBATION): inactive; negative; mutagenic call (Test System: AMES SALMONELLA TYPHIMURIUM, Strain/Indicator: TA1535, Metabolic Activation: HAMSTER, LIVER, S-9, AROCLOR 1254 (10%), Method: PREINCUBATION): inactive; negative; mutagenic call (Test System: AMES SALMONELLA TYPHIMURIUM, Strain/Indicator: TA1535, Metabolic Activation: HAMSTER, LIVER, S-9, AROCLOR 1254 (30%), Method: PREINCUBATION): inactive; negative; mutagenic call (Test System: AMES SALMONELLA TYPHIMURIUM, Strain/Indicator: TA1535, Metabolic Activation: NONE, Method: PREINCUBATION): inactive; negative; mutagenic call (Test System: AMES SALMONELLA TYPHIMURIUM, Strain/Indicator: TA1535, Metabolic Activation: RAT, LIVER, S-9, AROCLOR 1254 (10%), Method: PREINCUBATION): inactive; negative; mutagenic call (Test System: AMES SALMONELLA TYPHIMURIUM, Strain/Indicator: TA1535, Metabolic Activation: RAT, LIVER, S-9, AROCLOR 1254 (30%), Method: PREINCUBATION): inactive; negative

**Q.** What does the source list for `CCO[Si](OCC)(OCC)OCC`?
**A.** mutagenic call (Test System: AMES SALMONELLA TYPHIMURIUM, Strain/Indicator: TA98, Metabolic Activation: HAMSTER, LIVER, S-9, AROCLOR 1254, Method: STANDARD PLATE): inactive; negative; mutagenic call (Test System: AMES SALMONELLA TYPHIMURIUM, Strain/Indicator: TA98, Metabolic Activation: NONE, Method: STANDARD PLATE): inactive; negative; mutagenic call (Test System: AMES SALMONELLA TYPHIMURIUM, Strain/Indicator: TA98, Metabolic Activation: RAT, LIVER, S-9, AROCLOR 1254, Method: STANDARD PLATE): inactive; negative; mutagenic call (Test System: AMES SALMONELLA TYPHIMURIUM, Strain/Indicator: TA100, Metabolic Activation: HAMSTER, LIVER, S-9, AROCLOR 1254, Method: STANDARD PLATE): inactive; negative; mutagenic call [1]: inactive; negative; mutagenic call (Test System: AMES SALMONELLA TYPHIMURIUM, Strain/Indicator: TA100, Metabolic Activation: RAT, LIVER, S-9, AROCLOR 1254, Method: STANDARD PLATE): inactive; negative; mutagenic call (Test System: AMES SALMONELLA TYPHIMURIUM, Strain/Indicator: TA102, Metabolic Activation: HAMSTER, LIVER, S-9, AROCLOR 1254, Method: STANDARD PLATE): inactive; negative; mutagenic call (Test System: AMES SALMONELLA TYPHIMURIUM, Strain/Indicator: TA102, Metabolic Activation: NONE, Method: STANDARD PLATE): inactive; negative; mutagenic call (Test System: AMES SALMONELLA TYPHIMURIUM, Strain/Indicator: TA102, Metabolic Activation: RAT, LIVER, S-9, AROCLOR 1254, Method: STANDARD PLATE): inactive; negative; mutagenic call (Test System: AMES SALMONELLA TYPHIMURIUM, Strain/Indicator: TA1535, Metabolic Activation: HAMSTER, LIVER, S-9, AROCLOR 1254, Method: STANDARD PLATE): inactive; negative; mutagenic call (Test System: AMES SALMONELLA TYPHIMURIUM, Strain/Indicator: TA1535, Metabolic Activation: NONE, Method: STANDARD PLATE): inactive; negative; mutagenic call (Test System: AMES SALMONELLA TYPHIMURIUM, Strain/Indicator: TA1535, Metabolic Activation: RAT, LIVER, S-9, AROCLOR 1254, Method: STANDARD PLATE): inactive; negative; mutagenic call (Test System: AMES SALMONELLA TYPHIMURIUM, Strain/Indicator: TA1537, Metabolic Activation: HAMSTER, LIVER, S-9, AROCLOR 1254, Method: STANDARD PLATE): inactive; negative; mutagenic call (Test System: AMES SALMONELLA TYPHIMURIUM, Strain/Indicator: TA1537, Metabolic Activation: NONE, Method: STANDARD PLATE): inactive; negative; mutagenic call (Test System: AMES SALMONELLA TYPHIMURIUM, Strain/Indicator: TA1537, Metabolic Activation: RAT, LIVER, S-9, AROCLOR 1254, Method: STANDARD PLATE): inactive; negative; mutagenic call (Test System: MOUSE LYMPHOMA, Strain/Indicator: L5178Y (TK+/TK-), Metabolic Activation: NONE, Method: SUSPENSION/PLATE): inactive; negative. reevaluation of results: negative; mutagenic call (Test System: Mouse lymphoma, Strain/Indicator: L5178 Y (tk+/tk-), Metabolic Activation: Rat, Liver, S-9, Aroclor 1254, Method: Suspension/plate): inactive; negative

**Q.** Which mutagenic call (End Point: IN VITRO CHROMOSOMAL ABERRATIONS, Test System: CHL CELLS, Metabolic Activation: RAT, LIVER, S-9, SODIUM PHENOBARBITAL AND 5,6-BENZOFLAVONE) does the source give for `CCN(CC)c1cc(NC(C)=O)c(N=Nc2c(Cl)cc([N+](=O)[O-])cc2[N+](=O)[O-])cc1OC` here?
**A.** Its mutagenic call is “inactive; negative”.

**Q.** With `CCCCCOc1ccc(N=O)cc1` as the molecule, how does the mutagenic call [1] read?
**A.** The mutagenic call was “active; positive”.

**Q.** How did the mutagenic call (Test System: Ames Salmonella typhimurium, Strain/Indicator: TA98, Metabolic Activation: Liver, S-9, Method: Preincubation) turn out when `C=CC1=C(C)/C(=C/c2[nH]c(Cc3[nH]c(/C=C4\NC(=O)C(C)=C4C=C)c(C)c3CCC(=O)O)c(CCC(=O)O)c2C)NC1=O` was run?
**A.** The mutagenic call was “inactive; negative”.

**Q.** What about the mutagenic call (Test System: Ames Salmonella typhimurium, Strain/Indicator: TA98, Metabolic Activation: None, Method: Preincubation) of the same molecule?
**A.** Its mutagenic call is “inactive; negative”.

**Q.** And the mutagenic call (Test System: Ames Salmonella typhimurium, Strain/Indicator: TA100, Metabolic Activation: Liver, S-9, Method: Preincubation)?
**A.** Its mutagenic call is “inactive; negative”.

**Q.** And the mutagenic call (Test System: Ames Salmonella typhimurium, Strain/Indicator: TA100, Metabolic Activation: None, Method: Preincubation)?
**A.** Its mutagenic call is “inactive; negative”.

**Q.** And the mutagenic call (Test System: Ames Salmonella typhimurium, Strain/Indicator: TA102, Metabolic Activation: Liver, S-9, Method: Preincubation)?
**A.** The mutagenic call was “inactive; negative”.

**Q.** And the mutagenic call (Test System: Ames Salmonella typhimurium, Strain/Indicator: TA102, Metabolic Activation: None, Method: Preincubation)?
**A.** The mutagenic call was “inactive; negative”.
